Tests used:
Plutella xylostella [1] = experiment: Insecticidal activity against Plutella xylostella assessed as mortality at 200 ug/ml pre-incubated with cabbage leaves for 2 to 3 secs and measured 48 hrs post dose by leaf disc assay; assay type: functional; conditions: foliar
Tetranychus cinnabarinus = experiment: Acaricidal activity against Tetranychus cinnabarinus assessed as mortality at 200 ug/ml pre-incubated with mite-infested Sieva bean plants for 3 secs and measured 48 hrs post dose; assay type: functional
Huh-7 = experiment: Cytotoxicity against human HuH7 cells assessed as inhibition of cell growth after 48 hrs by MTT assay; assay type: functional, cell-based; conditions: Huh-7, 48 h
Plutella xylostella [2] = experiment: Insecticidal activity against Plutella xylostella assessed as mortality at 100 ug/ml pre-incubated with cabbage leaves for 2 to 3 secs and measured 48 hrs post dose by leaf disc assay; assay type: functional; conditions: foliar
Aphis craccivora [3] = experiment: Insecticidal activity against Aphis craccivora assessed as mortality at 100 ug/ml pre-incubated with horsebean shoot with aphids for 2 secs and measured 48 hrs post dose by foliar application method; assay type: functional
Aphis craccivora [4] = experiment: Insecticidal activity against Aphis craccivora assessed as mortality at 200 ug/ml pre-incubated with horsebean shoot with aphids for 2 secs and measured 48 hrs post dose by foliar application method; assay type: functional
PANC-1 = experiment: Cytotoxicity against human PANC1 cells assessed as inhibition of cell growth after 48 hrs by MTT assay; assay type: functional, cell-based; conditions: PANC-1, 48 h
SGC-7901 = experiment: Cytotoxicity against human SGC7901 cells assessed as inhibition of cell growth after 48 hrs by MTT assay; assay type: functional, cell-based; conditions: SGC-7901, 48 h
Aphis craccivora [5] = experiment: Insecticidal activity against Aphis craccivora assessed as mortality at 50 ug/ml pre-incubated with horsebean shoot with aphids for 2 secs and measured 48 hrs post dose by foliar application method; assay type: functional
HCT-116 = experiment: Cytotoxicity against human HCT116 cells assessed as inhibition of cell growth after 48 hrs by MTT assay; assay type: functional, cell-based; conditions: HCT-116, 48 h
Plutella xylostella [6] = experiment: Insecticidal activity against Plutella xylostella assessed as mortality at 50 ug/ml pre-incubated with cabbage leaves for 2 to 3 secs and measured 48 hrs post dose by leaf disc assay; assay type: functional; conditions: foliar

Structure (SMILES)	mortality at 200 µg/mL (Plutella xylostella [1])	mortality at 200 µg/mL (Tetranychus cinnabarinus)	IC50 (Huh-7)	mortality at 100 µg/mL (Plutella xylostella [2])	mortality at 100 µg/mL (Aphis craccivora [3])	mortality at 200 µg/mL (Aphis craccivora [4])	IC50 (PANC-1)	IC50 (SGC-7901)	mortality at 50 µg/mL (Aphis craccivora [5])	IC50 (HCT-116)	mortality at 50 µg/mL (Plutella xylostella [6])
Cc1nnsc1CO/N=C/c1c(C)nn(C)c1Cl	100%	0%	> 50 µM	0%	85%	100%	26.6 µM	> 50 µM	61%	> 50 µM	
Cc1nnsc1CO/N=C/c1c(C)nn(C)c1Oc1ccccc1OC(F)(F)F	66%	0%	> 50 µM	0%		22%	> 50 µM	> 50 µM		> 50 µM	
Cc1nnsc1CO/N=C/c1c(C)nn(C)c1Oc1ccccc1Cl	100%	0%	> 50 µM	0%		15%	> 50 µM	> 50 µM		42.5 µM	
CCCc1nnsc1CO/N=C/c1c(C)nn(C)c1Oc1ccccc1C	0%	0%	> 50 µM			0%	> 50 µM	16.3 µM		15.7 µM	
CCc1nnsc1CO/N=C/c1c(C)nn(C)c1Oc1ccc(OC(F)(F)F)cc1	0%	0%	> 50 µM			0%	> 50 µM	13.6 µM		12.5 µM	
CCCc1nnsc1CO/N=C/c1c(C)nn(C)c1Cl	0%	0%	> 50 µM			0%	> 50 µM	> 50 µM		> 50 µM	
CCc1nnsc1CO/N=C/c1c(C)nn(C)c1Oc1ccccc1Cl	0%	0%	> 50 µM			0%	> 50 µM	15.8 µM		17.6 µM	
Cc1nnsc1CO/N=C/c1c(C)nn(C)c1Oc1cccc(F)c1F	100%	0%	10.2 µM	0%		19%	12.2 µM	25.7 µM		6.56 µM	
CCCc1nnsc1CO/N=C/c1c(C)nn(C)c1Oc1ccccc1Cl	0%	0%	> 50 µM			0%	> 50 µM	17.6 µM		16.4 µM	
Cc1nnsc1CO/N=C/c1c(C)nn(C)c1Oc1ccc(OC(F)(F)F)cc1	50%	80%	> 50 µM	0%	85%	100%	> 50 µM	11.5 µM	59%	12.8 µM	
Cc1cccc(Oc2c(/C=N/OCc3snnc3C)c(C)nn2C)c1	84%	0%	> 50 µM	0%	70%	90%	> 50 µM	12.8 µM	38%	14.1 µM	
CCc1nnsc1CO/N=C/c1c(C)nn(C)c1Cl	0%	0%	> 50 µM			0%	> 50 µM	> 50 µM		> 50 µM	
Cc1nnsc1CO/N=C/c1c(C)nn(C)c1Oc1ccc(C(C)(C)C)cc1	100%	0%	> 50 µM	0%	80%	95%	> 50 µM	> 50 µM	50%	33.5 µM	
Cc1nnsc1CO/N=C/c1c(C)nn(C)c1Oc1cccc(C(F)(F)F)c1	45%	0%	> 50 µM		55%	62%	> 50 µM	12.4 µM	31%	10.3 µM	
CCc1nnsc1CO/N=C/c1c(C)nn(C)c1Oc1ccc(C)cc1	0%	0%	> 50 µM			0%	> 50 µM	19.8 µM		> 50 µM	
CCCc1nnsc1CO/N=C/c1c(C)nn(C)c1Oc1ccc(F)cc1	0%	0%	> 50 µM			0%	> 50 µM	8.64 µM		7.06 µM	
CCCc1nnsc1CO/N=C/c1c(C)nn(C)c1Oc1ccc(Cl)cc1	0%	0%	> 50 µM			0%	> 50 µM	18.6 µM		19.2 µM	
Cc1ccc(Oc2c(/C=N/OCc3snnc3C)c(C)nn2C)cc1	100%	0%	> 50 µM	0%	90%	100%	> 50 µM	12.8 µM	58%	13.8 µM	
Cc1nnsc1CO/N=C/c1c(C)nn(C)c1Oc1cc(F)cc(F)c1	100%	0%	> 50 µM	0%	75%	90%	> 50 µM	9.41 µM	45%	8.12 µM	
Cc1nnsc1CO/N=C/c1c(C)nn(C)c1Oc1ccc(F)cc1	100%	0%	> 50 µM	0%	90%	99%	> 50 µM	> 50 µM	60%	30.2 µM	
O=c1[nH]cc(F)c(=O)[nH]1 [FLUOROURACIL]								56.1 µM		29.5 µM	
O=[N+]([O-])/N=C1\NCCN1Cc1ccc(Cl)nc1 [IMIDACLOPRID]					100%	100%			100%		
FC(F)(F)c1ccc(OCCCOc2c(Cl)cc(OCC=C(Cl)Cl)cc2Cl)nc1 [PYRIDALYL]	100%			100%							100%
CNC(=O)c1cc(Oc2ccc(NC(=O)Nc3ccc(Cl)c(C(F)(F)F)c3)cc2)ccn1 [SORAFENIB]							11.5 µM				

From ChEMBL document CHEMBL4431337, “Synthesis and bioactivities of novel pyrazole oxime derivatives containing a 1,2,3-thiadiazole moiety” (Bioorg Med Chem Lett, 2016)
